Data: ChEMBL document CHEMBL3046898, “Synthesis and characterization of flurbiprofen hydrazide derivatives as potential anti-HCV, anticancer and antimicrobial agents” (2013)
The source made the active and inactive calls. The calls are words filed in the database; no cut-off is given here.

What was measured:
Micrococcus lylae [1] = experiment: Antibacterial activity against Micrococcus lylae at 6.25 to 200 ug/ml after 24 hrs by microwell dilution method; type: functional, organism-based
Micrococcus luteus [2] = experiment: Antibacterial activity against Micrococcus luteus at 6.25 to 200 ug/ml after 24 hrs by microwell dilution method; type: functional, organism-based
Nakaseomyces glabratus = experiment: Antifungal activity against Candida glabrata at 10 mg/ml after 48 hrs by disc diffusion method; type: functional, organism-based
Candida parapsilosis = experiment: Antifungal activity against Candida parapsilosis at 10 mg/ml after 48 hrs by disc diffusion method; type: functional, organism-based
MDA-MB-231 = experiment: Cytotoxicity against human MDA-MB-231 assessed as cell growth at 10 uM after 48 hrs by SRB assay; type: functional; conditions: MDA-MB-231, 48 h, read-out: Activity
Hs-578T = experiment: Cytotoxicity against human Hs 578T assessed as cell growth at 10 uM after 48 hrs by SRB assay; type: functional; conditions: read-out: Activity
DU-145 = experiment: Cytotoxicity against human DU145 assessed as cell growth at 10 uM after 48 hrs by SRB assay; type: functional; conditions: DU-145, 48 h, read-out: Activity
UO-31 = experiment: Cytotoxicity against human UO31 assessed as cell growth at 10 uM after 48 hrs by SRB assay; type: functional; conditions: UO-31, 48 h, read-out: Activity
PC-3 = experiment: Cytotoxicity against human PC3 assessed as cell growth at 10 uM after 48 hrs by SRB assay; type: functional; conditions: PC-3, 48 h, read-out: Activity
TK-10 = experiment: Cytotoxicity against human TK10 assessed as cell growth at 10 uM after 48 hrs by SRB assay; type: functional; conditions: TK-10, 48 h, read-out: Activity
SN12C = experiment: Cytotoxicity against human SN12C assessed as cell growth at 10 uM after 48 hrs by SRB assay; type: functional; conditions: read-out: Activity
CAKI-1 = experiment: Cytotoxicity against human Caki1 assessed as cell growth at 10 uM after 48 hrs by SRB assay; type: functional; conditions: CAKI-1, 48 h, read-out: Activity
ACHN = experiment: Cytotoxicity against human ACHN assessed as cell growth at 10 uM after 48 hrs by SRB assay; type: functional; conditions: read-out: Activity
SK-OV-3 = experiment: Cytotoxicity against human SKOV3 assessed as cell growth at 10 uM after 48 hrs by SRB assay; type: functional; conditions: SK-OV-3, 48 h, read-out: Activity
OVCAR-8 = experiment: Cytotoxicity against human OVCAR8 assessed as cell growth at 10 uM after 48 hrs by SRB assay; type: functional; conditions: OVCAR-8, 48 h, read-out: Activity
OVCAR-4 = experiment: Cytotoxicity against human OVCAR4 assessed as cell growth at 10 uM after 48 hrs by SRB assay; type: functional; conditions: OVCAR-4, 48 h, read-out: Activity
UACC-62 = experiment: Cytotoxicity against human UACC62 assessed as cell growth at 10 uM after 48 hrs by SRB assay; type: functional; conditions: UACC-62, 48 h, read-out: Activity
SK-MEL-5 = experiment: Cytotoxicity against human SK-MEL-5 assessed as cell growth at 10 uM after 48 hrs by SRB assay; type: functional; conditions: SK-MEL-5, 48 h, read-out: Activity
LOX IMVI = experiment: Cytotoxicity against human LOXIMVI assessed as cell growth at 10 uM after 48 hrs by SRB assay; type: functional; conditions: read-out: Activity
SNB-19 = experiment: Cytotoxicity against human SNB19 assessed as cell growth at 10 uM after 48 hrs by SRB assay; type: functional; conditions: SNB-19, 48 h, read-out: Activity
SF-295 = experiment: Cytotoxicity against human SF295 assessed as cell growth at 10 uM after 48 hrs by SRB assay; type: functional; conditions: SF-295, 48 h, read-out: Activity
KM12 = experiment: Cytotoxicity against human KM12 assessed as cell growth at 10 uM after 48 hrs by SRB assay; type: functional; conditions: KM12, 48 h, read-out: Activity
SW-620 = experiment: Cytotoxicity against human SW620 assessed as cell growth at 10 uM after 48 hrs by SRB assay; type: functional; conditions: SW-620, 48 h, read-out: Activity
HCT-116 = experiment: Cytotoxicity against human HCT116 assessed as cell growth at 10 uM after 48 hrs by SRB assay; type: functional; conditions: HCT-116, 48 h, read-out: Activity
HCT-15 = experiment: Cytotoxicity against human HCT15 assessed as cell growth at 10 uM after 48 hrs by SRB assay; type: functional; conditions: HCT-15, 48 h, read-out: Activity
NCI-H522 = experiment: Cytotoxicity against human NCI-H522 assessed as cell growth at 10 uM after 48 hrs by SRB assay; type: functional; conditions: NCI-H522, 48 h, read-out: Activity
NCI-H226 = experiment: Cytotoxicity against human NCI-H226 assessed as cell growth at 10 uM after 48 hrs by SRB assay; type: functional; conditions: NCI-H226, 48 h, read-out: Activity
HOP-92 = experiment: Cytotoxicity against human HOP92 assessed as cell growth at 10 uM after 48 hrs by SRB assay; type: functional; conditions: HOP-92, 48 h, read-out: Activity
EKVX = experiment: Cytotoxicity against human EKVX assessed as cell growth at 10 uM after 48 hrs by SRB assay; type: functional; conditions: read-out: Activity
Photorhabdus luminescens = experiment: Antibacterial activity against Photorhabdus luminescens at 6.25 to 200 ug/ml after 24 hrs by microwell dilution method; type: functional, organism-based
[3] = system: Acinetobacter radioresistens; experiment: Antibacterial activity against Acinetobacter radioresistens at 6.25 to 200 ug/ml after 24 hrs by microwell dilution method; type: functional, organism-based
Salmonella paratyphi [4] = experiment: Antibacterial activity against Salmonella paratyphi at 6.25 to 200 ug/ml after 24 hrs by microwell dilution method; type: functional, organism-based; conditions: Salmonella enterica subsp. enterica serovar Paratyphi A
A549 = experiment: Cytotoxicity against human A549 assessed as cell growth at 10 uM after 48 hrs by SRB assay; type: functional; conditions: A549, 48 h, read-out: Activity
RPMI-8226 = experiment: Cytotoxicity against human RPMI8226 assessed as cell growth at 10 uM after 48 hrs by SRB assay; type: functional; conditions: RPMI-8226, 48 h, read-out: Activity
SR = experiment: Cytotoxicity against human SR assessed as cell growth at 10 uM after 48 hrs by SRB assay; type: functional; conditions: read-out: Activity
HL-60(TB) = experiment: Cytotoxicity against human HL-60(TB) assessed as cell growth at 10 uM after 48 hrs by SRB assay; type: functional; conditions: HL-60, 48 h, read-out: Activity
CCRF-CEM = experiment: Cytotoxicity against human CCRF-CEM assessed as cell growth at 10 uM after 48 hrs by SRB assay; type: functional; conditions: read-out: Activity
Salmonella paratyphi [5] = experiment: Antibacterial activity against Salmonella paratyphi at 10 mg/ml after 24 hrs by disc diffusion method; type: functional, organism-based; conditions: Salmonella enterica subsp. enterica serovar Paratyphi A
Micrococcus lylae [6] = experiment: Antibacterial activity against Micrococcus lylae at 10 mg/ml after 24 hrs by disc diffusion method; type: functional, organism-based
Micrococcus luteus [7] = experiment: Antibacterial activity against Micrococcus luteus at 10 mg/ml after 24 hrs by disc diffusion method; type: functional, organism-based
Hepacivirus hominis = experiment: Inhibition of HCV N-terminal His-tagged NS5B RNA dependent RNA polymerase expressed in Escherichia coli DH5alpha using poly rA/U12 as primer at 200 uM after 60 mins by liquid scintillation counting

CC(C(=O)NN1C(=O)CSC1c1ccc(C(F)(F)F)cc1)c1ccc(-c2ccccc2)c(F)c1 (stereo unspecified)
Activity (Micrococcus lylae [1]): inactive | Activity (Micrococcus luteus [2]): inactive | Activity (Nakaseomyces glabratus): inactive | Activity (Candida parapsilosis): inactive | growth at 10 µM (MDA-MB-231): 70.1% | growth at 10 µM (Hs-578T): 54.2% | growth at 10 µM (DU-145): 81.5% | growth at 10 µM (UO-31): 58.8% | growth at 10 µM (PC-3): 37.5% | growth at 10 µM (TK-10): 99.5% | growth at 10 µM (SN12C): 72.3% | growth at 10 µM (CAKI-1): 33.6% | growth at 10 µM (ACHN): 59.6% | growth at 10 µM (SK-OV-3): 94.7% | growth at 10 µM (OVCAR-8): 86.5% | growth at 10 µM (OVCAR-4): 58.6% | growth at 10 µM (UACC-62): 50.9% | growth at 10 µM (SK-MEL-5): 81.8% | growth at 10 µM (LOX IMVI): 74.5% | growth at 10 µM (SNB-19): 54.7% | growth at 10 µM (SF-295): 58.4% | growth at 10 µM (KM12): 46.2% | growth at 10 µM (SW-620): 83.9% | growth at 10 µM (HCT-116): 45.5% | growth at 10 µM (HCT-15): 69.5% | growth at 10 µM (NCI-H522): 79.5% | growth at 10 µM (NCI-H226): 86% | growth at 10 µM (HOP-92): 59.9% | growth at 10 µM (EKVX): 57.9% | Activity (Photorhabdus luminescens): inactive | Activity [3]: inactive | Activity (Salmonella paratyphi [4]): inactive | growth at 10 µM (A549): 68.6% | growth at 10 µM (RPMI-8226): 43.3% | growth at 10 µM (SR): 20.8% | growth at 10 µM (HL-60(TB)): 36.9% | growth at 10 µM (CCRF-CEM): 74.7% | Activity (Salmonella paratyphi [5]): inactive | Activity (Micrococcus lylae [6]): inactive | Activity (Micrococcus luteus [7]): inactive | inhibition (Hepacivirus hominis): 8%
